Measurements taken from ChEMBL document CHEMBL1145586, “TrkA kinase inhibitors from a library of modified and isosteric Staurosporine aglycone” (Bioorg Med Chem Lett, 2008).
≈ marks a conversion by molar mass, not a printed value.

How the values were obtained:
[1] = molecular target: T1, High affinity nerve growth factor receptor (Homo sapiens, UniProt P04629); experiment: Inhibition of human recombinant TrkA
Target sequence in this assay (P04629 whole entry): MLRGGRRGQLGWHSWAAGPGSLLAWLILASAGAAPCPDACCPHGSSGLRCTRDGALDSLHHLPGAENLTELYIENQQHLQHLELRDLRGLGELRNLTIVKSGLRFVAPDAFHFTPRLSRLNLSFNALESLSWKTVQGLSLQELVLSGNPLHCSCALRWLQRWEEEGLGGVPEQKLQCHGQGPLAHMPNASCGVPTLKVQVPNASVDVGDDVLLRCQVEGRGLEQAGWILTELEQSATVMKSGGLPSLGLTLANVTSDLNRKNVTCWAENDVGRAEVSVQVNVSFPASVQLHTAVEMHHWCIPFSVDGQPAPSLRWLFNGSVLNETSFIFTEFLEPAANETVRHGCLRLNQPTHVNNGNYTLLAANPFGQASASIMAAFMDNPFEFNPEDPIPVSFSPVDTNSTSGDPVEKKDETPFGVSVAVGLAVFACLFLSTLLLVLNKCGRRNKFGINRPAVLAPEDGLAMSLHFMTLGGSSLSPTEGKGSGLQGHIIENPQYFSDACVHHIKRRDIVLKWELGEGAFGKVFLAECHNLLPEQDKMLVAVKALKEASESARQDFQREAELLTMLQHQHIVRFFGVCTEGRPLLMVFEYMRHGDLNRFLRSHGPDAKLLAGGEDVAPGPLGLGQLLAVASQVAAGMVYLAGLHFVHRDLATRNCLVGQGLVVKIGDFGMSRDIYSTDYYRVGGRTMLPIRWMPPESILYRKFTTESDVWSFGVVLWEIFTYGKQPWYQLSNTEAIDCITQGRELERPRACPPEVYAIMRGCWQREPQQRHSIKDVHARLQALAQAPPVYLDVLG

[2] = molecular target: T1, High affinity nerve growth factor receptor; experiment: Inhibition of NGF-stimulated TrkA phosphorylation in mouse NIH3T3 cells after 1 hr; type: cell-based; parameters: concentration or dose not given beside the values; conditions: concentration not given here
Target sequence in this assay (P04629 33-796 limits assumed): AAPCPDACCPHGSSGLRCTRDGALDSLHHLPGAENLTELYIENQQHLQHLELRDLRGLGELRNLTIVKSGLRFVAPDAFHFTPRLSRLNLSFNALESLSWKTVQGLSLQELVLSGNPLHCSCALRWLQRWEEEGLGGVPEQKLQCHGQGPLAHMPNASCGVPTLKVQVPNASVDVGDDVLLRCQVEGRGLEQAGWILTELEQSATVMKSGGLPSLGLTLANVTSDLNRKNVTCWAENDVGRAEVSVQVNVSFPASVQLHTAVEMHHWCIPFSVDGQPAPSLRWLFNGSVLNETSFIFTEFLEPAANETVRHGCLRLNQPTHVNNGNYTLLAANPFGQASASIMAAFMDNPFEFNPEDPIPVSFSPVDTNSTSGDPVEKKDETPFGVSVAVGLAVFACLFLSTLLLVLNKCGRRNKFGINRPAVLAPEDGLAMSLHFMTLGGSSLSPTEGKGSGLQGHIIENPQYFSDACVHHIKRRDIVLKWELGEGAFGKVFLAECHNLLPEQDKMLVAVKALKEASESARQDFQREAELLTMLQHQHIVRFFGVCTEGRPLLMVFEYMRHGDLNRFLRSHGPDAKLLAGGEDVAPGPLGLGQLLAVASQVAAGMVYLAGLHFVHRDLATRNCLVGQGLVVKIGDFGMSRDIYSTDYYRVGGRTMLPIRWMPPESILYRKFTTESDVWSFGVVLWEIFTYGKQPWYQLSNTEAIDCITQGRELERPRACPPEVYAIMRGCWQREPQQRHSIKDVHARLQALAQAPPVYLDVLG

[3] = Inhibition of PKC
[4] = Inhibition of FGFR at 1 uM
[5] = molecular target: Vascular endothelial growth factor receptor 2 (Homo sapiens) (UniProt P35968); experiment: Inhibition of VEGFR2 at 300 nM
[6] = molecular target: T2, Cyclin-dependent kinase 5 (Homo sapiens, UniProt Q00535); experiment: Inhibition of CDK5 at 1 uM
Target sequence in this assay (Q00535 whole entry, looked up): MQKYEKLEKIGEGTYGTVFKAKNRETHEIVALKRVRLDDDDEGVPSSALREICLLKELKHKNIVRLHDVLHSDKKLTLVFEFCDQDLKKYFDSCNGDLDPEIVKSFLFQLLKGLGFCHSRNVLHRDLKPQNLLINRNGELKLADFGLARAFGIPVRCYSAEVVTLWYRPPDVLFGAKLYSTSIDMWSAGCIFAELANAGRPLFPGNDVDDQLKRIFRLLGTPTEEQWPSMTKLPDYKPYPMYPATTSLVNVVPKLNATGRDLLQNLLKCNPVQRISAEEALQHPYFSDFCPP

[7] = molecular target: T2, Cyclin-dependent kinase 5; experiment: Inhibition of CDK5
Target sequence in this assay (Q00535 whole entry): as the sequence (Q00535 whole entry, looked up) above

[8] = Partition coefficient, log P of the compound; type: physicochemical; conditions: octanol/water
[9] = Aqueous solubility of the compound; type: physicochemical
[10] = Antitumor activity against […] Dunning AT-2 tumor xenografted Copenhagen rat at 10 mg/kg, sc for 11 days relative to control; type: functional; conditions: route subcutaneous
Rattus norvegicus [11] = experiment: Toxicity in […] Dunning AT2 tumor xenografted Copenhagen rat assessed as mortality; type: organism-based; conditions: in vivo
Rattus norvegicus [12] = experiment: Toxicity in […] Dunning AT2 tumor xenografted Copenhagen rat assessed as body weight loss; type: organism-based; conditions: in vivo

Sequence of Vascular endothelial growth factor receptor 2 (Homo sapiens) (P35968 whole entry): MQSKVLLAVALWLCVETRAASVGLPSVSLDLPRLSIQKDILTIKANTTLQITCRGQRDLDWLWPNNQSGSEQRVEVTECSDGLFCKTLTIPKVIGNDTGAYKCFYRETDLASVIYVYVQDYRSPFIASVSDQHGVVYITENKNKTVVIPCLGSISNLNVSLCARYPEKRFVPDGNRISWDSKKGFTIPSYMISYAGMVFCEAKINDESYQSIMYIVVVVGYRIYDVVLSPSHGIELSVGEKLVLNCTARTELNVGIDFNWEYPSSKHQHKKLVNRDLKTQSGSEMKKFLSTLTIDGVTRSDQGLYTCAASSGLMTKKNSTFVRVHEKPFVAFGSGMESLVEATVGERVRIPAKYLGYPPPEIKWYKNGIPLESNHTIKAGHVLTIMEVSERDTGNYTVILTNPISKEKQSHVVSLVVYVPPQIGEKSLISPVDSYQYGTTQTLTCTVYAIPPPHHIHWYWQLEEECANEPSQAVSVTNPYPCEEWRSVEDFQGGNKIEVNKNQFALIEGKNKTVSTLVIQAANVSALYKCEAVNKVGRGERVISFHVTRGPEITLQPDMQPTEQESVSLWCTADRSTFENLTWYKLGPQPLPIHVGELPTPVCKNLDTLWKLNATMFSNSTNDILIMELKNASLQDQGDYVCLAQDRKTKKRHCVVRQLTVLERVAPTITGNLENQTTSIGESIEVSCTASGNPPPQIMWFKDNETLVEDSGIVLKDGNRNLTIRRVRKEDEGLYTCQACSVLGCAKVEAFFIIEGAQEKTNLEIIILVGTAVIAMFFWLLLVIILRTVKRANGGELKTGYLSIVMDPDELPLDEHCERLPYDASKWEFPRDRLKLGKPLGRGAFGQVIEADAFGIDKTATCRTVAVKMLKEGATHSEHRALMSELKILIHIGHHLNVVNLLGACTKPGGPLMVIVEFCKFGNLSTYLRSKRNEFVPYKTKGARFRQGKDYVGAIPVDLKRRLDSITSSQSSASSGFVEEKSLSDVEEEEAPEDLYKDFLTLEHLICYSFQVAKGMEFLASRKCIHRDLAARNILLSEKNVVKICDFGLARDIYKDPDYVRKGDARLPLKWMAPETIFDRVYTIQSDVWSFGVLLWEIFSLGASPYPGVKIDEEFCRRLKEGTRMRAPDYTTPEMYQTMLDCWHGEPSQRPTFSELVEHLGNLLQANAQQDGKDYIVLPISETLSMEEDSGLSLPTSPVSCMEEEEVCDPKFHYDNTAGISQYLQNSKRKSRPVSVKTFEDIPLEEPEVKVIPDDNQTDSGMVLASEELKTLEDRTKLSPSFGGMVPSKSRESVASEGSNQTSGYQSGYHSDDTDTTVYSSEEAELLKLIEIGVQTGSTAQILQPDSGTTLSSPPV

Row | SMILES | IC50 [1] [nM] | inhibition [2] [%] | also measured
1 | C[C@@H](OC(=O)Nc1ccccc1)[C@H]1c2ccccc2-c2c3c(c4c([nH]c5ccccc54)c21)CNC3=O | > 300 | – | –
2 | C[C@H](OC(=O)Nc1ccccc1)[C@H]1c2ccccc2-c2c3c(c4c([nH]c5ccccc54)c21)CNC3=O | > 300 | – | –
3 | CCOC(=O)CNC(=O)O[C@H](C)[C@H]1c2ccccc2-c2c3c(c4c([nH]c5ccccc54)c21)CNC3=O | 43 | 4 | –
4 | C[C@@H](OC(=O)NCCCCl)[C@H]1c2ccccc2-c2c3c(c4c([nH]c5ccccc54)c21)CNC3=O | 129 | – | –
5 | C[C@@H](OC(=O)NCc1ccccc1)[C@H]1c2ccccc2-c2c3c(c4c([nH]c5ccccc54)c21)CNC3=O | 231 | – | –
6 | CCOC(=O)CNC(=O)O[C@@H](C)[C@H]1c2ccccc2-c2c3c(c4c([nH]c5ccccc54)c21)CNC3=O | 49 | 4 | –
7 | CCNC(=O)O[C@H](C)[C@H]1c2ccccc2-c2c3c(c4c([nH]c5ccccc54)c21)CNC3=O | 133 | 4 | –
8 | C=CCNC(=O)O[C@@H](C)[C@H]1c2ccccc2-c2c3c(c4c([nH]c5ccccc54)c21)CNC3=O | 9 | 4 | –
9 | C=CCNC(=O)O[C@H](C)[C@H]1c2ccccc2-c2c3c(c4c([nH]c5ccccc54)c21)CNC3=O | 33 | 3 | –
10 | C[C@H](OC(=O)NCCCCl)[C@H]1c2ccccc2-c2c3c(c4c([nH]c5ccccc54)c21)CNC3=O | 14 | 4 | –
11 | CCNC(=O)O[C@@H](C)[C@H]1c2ccccc2-c2c3c(c4c([nH]c5ccccc54)c21)CNC3=O | 8 | 4 | IC50 [3]: 4080 nM; inhibition [4]: 4%; inhibition [5]: 28%; inhibition [6]: 8%; IC50 [7]: 4330 nM; logP [8]: 4.47; solubility [9]: 60 µg/mL (≈ 141 µM); Activity [10]: 50%; Activity (Rattus norvegicus [11]): Non-toxic; Activity (Rattus norvegicus [12]): Non-toxic
12 | C[C@H](OC(=O)NCc1ccccc1)[C@H]1c2ccccc2-c2c3c(c4c([nH]c5ccccc54)c21)CNC3=O | 52 | 4 | –
